Results taken from paper PMC8869097, “Benzothiazole Derivatives as Multifunctional Antioxidant Agents for Skin Damage: Structure–Activity Relationship of a Scaffold Bearing a Five-Membered Ring System” (Antioxidants, 2022).

How the values were obtained:
[1] = Ferric Reducing Antioxidant Power assay (FRAP); details: 593 nm
Protocol: The FRAP assay is a widely used method based on a colorimetric reaction linked to a redox and on the use of antioxidants as reducing agents.
The test evaluates the capacity of a sample to reduce ferric to ferrous ions in the presence of TPTZ (2,4,6-tripyridyl-s-triazine). The reaction mixture consists of 0.1 M acetate buffer pH 3.6, 10 mmol/L TPTZ in 40 mmol/HCl, and 20 mmol/L ferric chloride in the ratio 10/1/1 (v:v:v) as described by Benzie et al.. A total of 1.9 mL of reagent was added to 0.1 mL of suitably diluted sample or solvent. The absorbance values were measured using the UV-VIS spectrophotometer at 593 nm and expressed as µmol TE/g compound.

[2] = Filtering parameters (in vitro SPF, UVAPF, UVA/UVB, critical wavelength) of W/O formulations on PMMA plates; assay type: physicochemical
Protocol: The synthesized derivatives were incorporated at increasing concentrations (1%, 2% and 3%) in a topical W/O cosmetic standard formulation, to evaluate the filtering parameters, having the following ingredients composition.
INCI (International Nomenclature Cosmetic Ingredients): aqua, glycerin, Euxyl PE 9010, xanthan gum, ceteareth-12, ceteareth-20, sterearic acid, butylhydroxytoluene, myritol, PEG-7 glyceryl cocoate and 10% sodium solution.
Briefly, the protocol is to finger spread 32.5 mg of each formulation onto 25 cm2 PMMA plates. Each formulation was tested in triplicate by recording five measurements for each dish, after incubation in the dark for 15–30 min at room temperature. UV transmittance data were recorded in the range 290–400 nm using a UV-VIS spectrophotometer.
Blank plate, SPF, UVA-PF and Critical Wavelength were achieved through SPF Calculator Software (version 2.1), Shimadzu, Milan, Italy) as previously reported.
For the determination of the SPF in vitro of the samples in formulation it was decided to use an internal method, developed by us previously and based on the adaptation of the ISO 24443: 2012 [38]. The transmittance spectrum, processed with a specific software (SPF Calculator), made it possible to obtain the SPF, UVAPF, critical lambda and UVA/UVB ratio values of the formulations containing the selected active ingredients (Table 1).

[3] = Photostability of formulations after solar simulator irradiation; assay type: physicochemical; details: for photostability of the filter: formulation on PMMA plate, photostable if residual % >= 80
Protocol: The method adopted to determine the photostability has been previously reported. Each plate was prepared as mentioned above and subjected to a solar irradiation quantified as the minimum UVA dose equivalent to an effective erythema radiant exposure. Transmittance of the sunscreen layer was recorded in the range of 290–400 nm before and after exposure to sunlight.
Equations (3) and (4) made it possible to derive the residual percentage of SPF in vitro (% SPFeff.) and UVA-PF (% UVA-PFeff.), respectively, which, if greater than or equal to 80, can categorize a filter as photostable. %SPFeff. = in vitro SPFafter/in vitro SPFbefore × 100(3) %UVA − PFeff. = UVA − PFafter/UVA − PFbefore × 100.(4)
Photostability is a crucial feature to delineate the efficacy and safety profile of a solar formulation. According to the criteria developed by Garoli et al., photodegradation was measured by recording the pre- and post-irradiation transmittance of PMMA plates with finger-coated formulations, applying the dose of UVA necessary to cause erythema.
The residual efficacy after exposure (%) indicates the loss of sun protection after sun exposure. Equations (3) and (4) made it possible to derive the residual percentage of SPF in vitro (% SPFeff.) and UVA-PF (% UVA-PFeff.), respectively, which, if greater than or equal to 80, make a filter to be categorized as photostable, according to regulation. It can be deduced from the data obtained that compounds 8a and 10a were photostable (Figure 2). […] Compound 9a containing furan in position 2 was photo-unstable with SPF and PF-UVA below 80%, and this could be attributable to photo-instability of its conjugated species. The order of photostability that emerged for the benzothiazole derivatives is: thiophene derivatives> pyrrole derivatives> furan derivatives.

In vitro DPPH test = details: for DPPH (% Inhibition): compounds at 1 mg/mL, 30 min, 517 nm
Protocol: The assay performed is adapted from Wang et al.. Briefly, 0.750 mL of 1 mg/mL solutions of the tested compounds was treated with 1.5 mL of DPPH solution in MeOH. The absorbance of samples, stored for 30 min at room temperature in the dark, was read on the spectrophotometer at 517 nm. The values obtained were converted into a radical inhibition percentage (%) by Equation (1). DPPH radical scavenging capacity (%) = [1 − A1/A0] × 100%(1) where A0 and A1 were, respectively, the absorbance without and with the sample. Subsequently, the compound with the best profile was tested in order to determine the IC50 (µg/mL). A linear regression plot is performed to calculate the actual sample concentration required to eliminate 50% of the DPPH free radicals.
The antioxidant activity of a molecule is very important and, if present, it can be synergistic with the SPF described above in reducing the damage that is ROS-induced by UV rays. For this reason, the synthesized compounds were assayed in vitro to assess their antioxidant profiles by means of the DPPH and FRAP assays (Table 2). Regarding the ability to scavenge the stable radical 2,2-diphenyl-1-picrylhydrazyl (DPPH), it was decided to investigate first the compounds synthesized at the same concentration (1 mg/mL) and evaluate the percentage of inhibition of the radical DPPH.

Row | UVA/UVB ([2]; 1% in W/O formulation) | λc ([2]; 1% in W/O formulation) [nm] | UVA/UVB ([2]; 2% in W/O formulation) | λc ([2]; 2% in W/O formulation) [nm] | UVA/UVB ([2]; 3% in W/O formulation) | λc ([2]; 3% in W/O formulation) [nm] | photostability of the filter [3] | residual percentage of SPF in vitro (% SPFeff.) ([3]; after irradiation) | residual percentage of UVA-PF (% UVA-PFeff.) ([3]; after irradiation) | DPPH IC50 (In vitro DPPH test) [mg/mL] | Compound | FRAP [1] [μmolTE/g] | SPF ([2]; 1% in W/O formulation) | UVAPF ([2]; 1% in W/O formulation) | SPF ([2]; 2% in W/O formulation) | UVAPF ([2]; 2% in W/O formulation) | SPF ([2]; 3% in W/O formulation) | UVAPF ([2]; 3% in W/O formulation) | UVA protection profile ([2]; UVA-PF at least 1/3 of SPF to be efficient) | DPPH (% Inhibition) (In vitro DPPH test) [%]
1 | 1.17 | 354 | 0.92 | 353 | 0.66 | 354 | photostable |  |  |  | c1c[nH]c(-c2nc3ccccc3s2)c1 [Compound 8a, 2-(1H-Pyrrol-2-Yl)benzothiazole] | 329.85 ± 0.94 | 4.19 | 2.17 | 7.16 | 2.46 | 13.05 | 2.88 | good UVA protection profile | 29.17 ± 1.05
2 | 0.34 | 337 | 0.18 | 341 | 0.13 | 343 | photo-unstable | below 80% | below 80% |  | c1coc(-c2nc3ccccc3s2)c1 [Compound 9a, 2-(Furan-2-Yl)benzothiazole] | 72.34 ± 3.42 | 6.42 | 1.26 | 14.18 | 1.60 | 20.23 | 1.50 |  | 24.69 ± 0.14
3 | 0.69 | 347 | 0.62 | 347 | 0.45 | 349 | photostable |  |  |  | c1csc(-c2nc3ccccc3s2)c1 [Compound 10a, 2-(Thiophen-2-Yl)benzothiazole] | 143.13 ± 3.84 | 4.86 | 1.60 | 5.14 | 1.60 | 10.73 | 2.02 |  | 85.00 ± 0.88
4 |  |  |  |  |  |  |  |  |  |  | NS(=O)(=O)c1ccc2nc(-c3cccs3)sc2c1 [Compound 10c, 2-(Thiophen-2-Yl)benzothiazole-6-Sulfonamide] | 60.90 ± 1.87 |  |  |  |  |  |  |  | 21.82 ± 0.06
5 | 0.70 | 341 | 0.73 | 357 | 0.75 | 364 |  |  |  | 0.064 ± 0.003 | c1c[nH]c(-c2nc3ccccc3[nH]2)c1 [Lead 10, reference compound] | 1085.57 ± 0.88 | 2.44 | 1.16 | 2.72 | 1.32 | 3.06 | 1.54 |  | 70.00 ± 3.25
